Source: the supplement of paper PMC10627819

Legend:
S. aureus DSM 20231 [1] = assay: Bliss interaction score (quartile over a dose matrix) (fitness difference); higher = more antagonism (negative = synergy)
How it was run: (§1)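 Fitness was defined as normalised growth: OD595 at the start of stationary phase divided by the plate's robust no-drug mean and capped at 1. Single-drug fitness was inferred from combination measurements. The Bliss score is observed fitness minus the product of the single-drug values, summarised by quartiles across technical, biological and donor/recipient replicates.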

S. aureus Newman [2] = assay: as above
How it was run: as §1

S. pneumoniae D39V [3] = assay: as above
How it was run: as §1

B. subtilis 168 [4] = assay: as above
How it was run: as §1

S. aureus DSM 20231 [5] = assay: fitness (endpoint OD595 vs no drug) (fraction); higher = more growth
How it was run: (§2)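 Bacterial fitness was scored as optical density at the stationary-phase transition relative to the robust mean of no-drug control wells. Scores are capped at 1. The growth data were OD595 readings every 30 min for 14 h at 37 °C, background-subtracted against the first reading, from 384-well plates inoculated at OD595 0.01 in TSB, LB Lennox or CY.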

S. pneumoniae D39V [6] = assay: as above
How it was run: as §2

B. subtilis 168 [7] = assay: as above
How it was run: as §2

S. aureus Newman [8] = assay: as above
How it was run: as §2
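For Bliss interaction score (quartile over a dose matrix) in this document: first quartile when negative (synergy) and third quartile when positive (antagonism).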
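For fitness (endpoint OD595 vs no drug) in this document: OD595 on entry to stationary phase over no-drug wells; at most 1.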

CC(=O)NC[C@H]1CN(c2ccc(N3CCOCC3)c(F)c2)C(=O)O1 [Linezolid] + CN(N=O)C(=O)N[C@@H](C=O)[C@@H](O)[C@H](O)[C@H](O)CO [Streptozotocin]
Details | Bliss interaction score
B. subtilis 168 [4] | -0.0322
S. aureus DSM 20231 [1] | -0.0379
S. aureus Newman [2] | -0.0367
S. pneumoniae D39V [3] | -0.115

fitness
Details | partner 0.15 µg/mL | partner 0.3 µg/mL | partner 0.6 µg/mL | partner 1.2 µg/mL | partner 2.4 µg/mL | partner 4.8 µg/mL
B. subtilis 168 [7], first compound 0.125 µg/mL | 0.479 | 0.502 | 0.453 | – | – | –
B. subtilis 168 [7], first compound 0.25 µg/mL | 0.0775 | 0.0625 | 0.0614 | – | – | –
S. aureus DSM 20231 [5], first compound 0.125 µg/mL | 0.778 | 0.738 | 0.68 | – | – | –
S. aureus DSM 20231 [5], first compound 0.25 µg/mL | 0.519 | 0.504 | 0.496 | – | – | –
S. aureus DSM 20231 [5], first compound 0.5 µg/mL | 0.129 | 0.176 | 0.133 | – | – | –
S. pneumoniae D39V [6], first compound 0.105 µg/mL | – | – | – | 0.771 | 0.815 | 0.778
S. pneumoniae D39V [6], first compound 0.21 µg/mL | – | – | – | 0.69 | 0.668 | 0.704
S. pneumoniae D39V [6], first compound 0.42 µg/mL | – | – | – | 0.438 | 0.432 | 0.408

fitness, one replicate
Details | partner 0.15 µg/mL | partner 0.3 µg/mL | partner 0.6 µg/mL | partner 1.2 µg/mL | partner 2.4 µg/mL | partner 4.8 µg/mL
B. subtilis 168 [7], first compound 0.0625 µg/mL | 0.957 | 0.927 | 0.929 | – | – | –
B. subtilis 168 [7], first compound 0.5 µg/mL | 0.0222 | 0.0242 | 0.0095 | – | – | –
S. aureus DSM 20231 [5], first compound 1 µg/mL | 0.023 | 0.0376 | 0.0265 | – | – | –
S. pneumoniae D39V [6], first compound 0.2 µg/mL | – | – | – | 0.806 | 0.823 | 0.787
S. pneumoniae D39V [6], first compound 0.4 µg/mL | – | – | – | 0.615 | 0.69 | 0.653
S. pneumoniae D39V [6], first compound 0.8 µg/mL | – | – | – | 0.299 | 0.351 | 0.204

CC(=O)NC[C@H]1CN(c2ccc(N3CCOCC3)c(F)c2)C(=O)O1 [Linezolid] + Cc1cc(NS(=O)(=O)c2ccc(N)cc2)no1 [Sulfamethoxazol]
Details | Bliss interaction score
B. subtilis 168 [4] | -0.0478
S. aureus DSM 20231 [1] | -0.03
S. aureus Newman [2] | 0.0723
S. pneumoniae D39V [3] | -0.0972

fitness
Details | first compound 0.105 µg/mL | first compound 0.125 µg/mL | first compound 0.21 µg/mL | first compound 0.25 µg/mL | first compound 0.42 µg/mL | first compound 0.5 µg/mL
B. subtilis 168 [7], partner 1 µg/mL | – | 0.606 | – | 0.2 | – | 0.0228
B. subtilis 168 [7], partner 2 µg/mL | – | 0.525 | – | 0.13 | – | 0.0265
B. subtilis 168 [7], partner 4 µg/mL | – | 0.515 | – | 0.0743 | – | 0.0275
S. aureus DSM 20231 [5], partner 1 µg/mL | – | 0.844 | – | 0.55 | – | 0.167
S. aureus DSM 20231 [5], partner 2 µg/mL | – | 0.865 | – | 0.533 | – | 0.161
S. aureus DSM 20231 [5], partner 4 µg/mL | – | 0.852 | – | 0.557 | – | 0.186
S. pneumoniae D39V [6], partner 1 µg/mL | 0.774 | – | 0.688 | – | 0.463 | –
S. pneumoniae D39V [6], partner 2 µg/mL | 0.772 | – | 0.71 | – | 0.48 | –
S. pneumoniae D39V [6], partner 4 µg/mL | 0.821 | – | 0.729 | – | 0.48 | –

fitness, one replicate
Details | partner 0.5 µg/mL | partner 1 µg/mL | partner 2 µg/mL | partner 4 µg/mL
B. subtilis 168 [7], first compound 0.0625 µg/mL | – | 0.94 | 0.895 | 0.828
B. subtilis 168 [7], first compound 0.125 µg/mL | 0.858 | – | – | –
B. subtilis 168 [7], first compound 0.25 µg/mL | 0.446 | – | – | –
B. subtilis 168 [7], first compound 0.5 µg/mL | 0.0399 | – | – | –
S. aureus DSM 20231 [5], first compound 1 µg/mL | – | 0.0364 | 0.0289 | 0.0207
S. pneumoniae D39V [6], first compound 0.2 µg/mL | – | 0.777 | 0.817 | 0.726
S. pneumoniae D39V [6], first compound 0.4 µg/mL | – | 0.368 | 0.674 | 0.661
S. pneumoniae D39V [6], first compound 0.8 µg/mL | – | 0.348 | 0.427 | 0.397

CN[C@@H]1[C@H](O[C@H]2[C@H](O[C@H]3[C@H](O)[C@@H](O)[C@H](N=C(N)N)[C@@H](O)[C@@H]3N=C(N)N)O[C@@H](C)[C@]2(O)C=O)O[C@@H](CO)[C@H](O)[C@H]1O [Streptomycin] + CC1=C\[C@@H](O)CC(=O)Cc2nc(co2)C(=O)N2CCC=C2C(=O)O[C@H](C(C)C)[C@H](C)/C=C/C(=O)NC\C=C\1 [Virginiamycin M1]
Details | Bliss interaction score
B. subtilis 168 [4] | -0.124
S. aureus DSM 20231 [1] | -0.161
S. aureus Newman [2] | 0.0782
S. pneumoniae D39V [3] | 0.0533

fitness
Details | first compound 1 µg/mL | first compound 2 µg/mL | first compound 4 µg/mL | first compound 8 µg/mL
B. subtilis 168 [7], partner 0.0625 µg/mL | – | 0.962 | – | 0.0325
B. subtilis 168 [7], partner 0.125 µg/mL | – | 0.966 | 0.429 | 0.0265
B. subtilis 168 [7], partner 0.25 µg/mL | – | ≥ 1 | 0.453 | 0.0334
S. aureus Newman [8], partner 0.0625 µg/mL | 1 | 0.879 | – | –
S. aureus Newman [8], partner 0.125 µg/mL | 0.996 | 0.891 | – | –
S. aureus Newman [8], partner 0.25 µg/mL | 0.978 | 0.916 | – | –
S. pneumoniae D39V [6], partner 0.5 µg/mL | – | 0.977 | 0.998 | 0.931
S. pneumoniae D39V [6], partner 1 µg/mL | – | 0.955 | 0.99 | 0.884
S. pneumoniae D39V [6], partner 2 µg/mL | – | 0.917 | 0.944 | 0.921

fitness, one replicate
Details | partner 0.15 µg/mL | partner 0.3 µg/mL | partner 0.5 µg/mL | partner 1 µg/mL | partner 2 µg/mL
S. aureus Newman [8], first compound 2 µg/mL | – | – | 0.804 | 0.911 | 0.812
S. aureus Newman [8], first compound 4 µg/mL | – | – | 0.865 | 0.86 | 0.82
S. aureus Newman [8], first compound 8 µg/mL | – | – | 0.811 | 0.845 | 0.708
S. pneumoniae D39V [6], first compound 2 µg/mL | 0.928 | 0.912 | – | – | –
S. pneumoniae D39V [6], first compound 4 µg/mL | 0.925 | 0.929 | – | – | –
S. pneumoniae D39V [6], first compound 8 µg/mL | 0.917 | 0.941 | – | – | –
S. pneumoniae D39V [6], first compound 16 µg/mL | – | – | 0.866 | 0.844 | 0.776

CC(=O)NC[C@H]1CN(c2ccc(N3CCOCC3)c(F)c2)C(=O)O1 [Linezolid] + CN[C@@H]1[C@H](O)[C@H](NC)[C@H]2O[C@@]3(O)C(=O)C[C@@H](C)O[C@H]3O[C@@H]2[C@H]1O [Spectinomycin]
Details | Bliss interaction score
B. subtilis 168 [4] | -0.0551
S. aureus DSM 20231 [1] | -0.0609
S. aureus Newman [2] | -0.12
S. pneumoniae D39V [3] | -0.134

fitness
Details | partner 2 µg/mL | partner 4 µg/mL | partner 8 µg/mL | partner 16 µg/mL
B. subtilis 168 [7], first compound 0.125 µg/mL | 0.507 | 0.426 | 0.336 | –
B. subtilis 168 [7], first compound 0.25 µg/mL | – | 0.0516 | 0.0689 | –
B. subtilis 168 [7], first compound 0.5 µg/mL | 0.0491 | 0.039 | 0.0208 | –
S. aureus DSM 20231 [5], first compound 0.125 µg/mL | – | 0.857 | 0.838 | 0.702
S. aureus DSM 20231 [5], first compound 0.25 µg/mL | – | 0.547 | 0.458 | 0.419
S. aureus DSM 20231 [5], first compound 0.5 µg/mL | – | 0.156 | 0.119 | 0.175
S. pneumoniae D39V [6], first compound 0.105 µg/mL | – | 0.767 | 0.73 | 0.694
S. pneumoniae D39V [6], first compound 0.21 µg/mL | – | 0.663 | 0.662 | 0.582
S. pneumoniae D39V [6], first compound 0.42 µg/mL | – | 0.454 | 0.343 | 0.284

one replicate
Details | fitness
B. subtilis 168 [7], first compound 0.0625 µg/mL, partner 2 µg/mL | 0.893
B. subtilis 168 [7], first compound 0.0625 µg/mL, partner 4 µg/mL | 0.814
B. subtilis 168 [7], first compound 0.0625 µg/mL, partner 8 µg/mL | 0.654
S. aureus DSM 20231 [5], first compound 0.125 µg/mL, partner 32 µg/mL | 0.472
S. aureus DSM 20231 [5], first compound 0.125 µg/mL, partner 64 µg/mL | 0.0532
S. aureus DSM 20231 [5], first compound 0.25 µg/mL, partner 32 µg/mL | 0.341
S. aureus DSM 20231 [5], first compound 0.25 µg/mL, partner 64 µg/mL | 0.037
S. aureus DSM 20231 [5], first compound 0.5 µg/mL, partner 32 µg/mL | 0.135
S. aureus DSM 20231 [5], first compound 0.5 µg/mL, partner 64 µg/mL | 0.0476
S. aureus DSM 20231 [5], first compound 1 µg/mL, partner 4 µg/mL | 0.0244
S. aureus DSM 20231 [5], first compound 1 µg/mL, partner 8 µg/mL | 0.0183
S. aureus DSM 20231 [5], first compound 1 µg/mL, partner 16 µg/mL | 0.009
S. pneumoniae D39V [6], first compound 0.2 µg/mL, partner 4 µg/mL | 0.8
S. pneumoniae D39V [6], first compound 0.2 µg/mL, partner 8 µg/mL | 0.769
S. pneumoniae D39V [6], first compound 0.4 µg/mL, partner 4 µg/mL | 0.633
S. pneumoniae D39V [6], first compound 0.4 µg/mL, partner 8 µg/mL | 0.659
S. pneumoniae D39V [6], first compound 0.8 µg/mL, partner 4 µg/mL | 0.271
S. pneumoniae D39V [6], first compound 0.8 µg/mL, partner 8 µg/mL | 0.302
